Measured values as given in patent publication US11872217B2, “Indanes as PD-L1 inhibitors” (CHEMOCENTRYX, INC., priority 2019, dated 2024).

Molecular target: human PD-L1 / Human PD-1 (Homo sapiens (Human), UniProt Q9NZQ7)
Test: Enzyme-Linked Immunosorbent Assay (ELISA), PD-1/PD-L1 binding
Details: plates coated with human PD-L1; biotinylated human PD-1; absorbance at 450 nm
Method: 96 Well plates were coated with 1 μg/mL of human PD-L1 (obtained from R&D) in PBS overnight at 4° C. The wells were then blocked with 2% BSA in PBS (W/V) with 0.05% TWEEN-20 for 1 hour at 37° C. The plates were washed 3 times with PBS/0.05% TWEEN-20 and the compounds were serial diluted (1:5) in dilution medium and added to the ELISA plates. Human PD-1 and biotin 0.3 μg/mL (ACRO Biosystems) were added and incubated for 1 hour at 37° C. then washed 3 times with PBS/0.05% TWEEN-20. A second block was performed with 2% BSA in PBS (W/V)/0.05% TWEEN-20 for 10 min at 37° C. and the plates were washed 3 times with PBS/0.05% TWEEN-20. Streptavidin-HRP was added for 1 hour at 37° C. then the plates were washed 3 times with PBS/0.05% TWEEN-20. TMB substrate was added and reacted for 20 min at 37° C. A stop solution (2 N aqueous H2SO4) was added. The absorbance was read at 450 nm using a micro-plate spectrophotometer. The results are shown in Table 1: IC50 values are provided as follows: from 100 up to 10,000 nM (+); less than 100 nM (++).

Sequence of human PD-L1 / Human PD-1 (Q9NZQ7 19-239): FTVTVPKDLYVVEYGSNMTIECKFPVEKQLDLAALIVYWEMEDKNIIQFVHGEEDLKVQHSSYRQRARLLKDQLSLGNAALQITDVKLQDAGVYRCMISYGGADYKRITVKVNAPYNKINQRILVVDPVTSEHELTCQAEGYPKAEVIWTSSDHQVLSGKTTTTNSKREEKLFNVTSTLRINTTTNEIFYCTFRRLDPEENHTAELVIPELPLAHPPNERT

IC50 [nM] | SMILES
< 100 | CN(CCCC(=O)O)Cc1cc(Cl)c(O[C@H]2CCc3c(-c4cccc5c4CC[C@@H]5Oc4cc(OCc5cncc(C#N)c5)c(CN(C)CCCC(=O)O)cc4Cl)cccc32)cc1OCc1cncc(C#N)c1 [Compound 1.035]
< 100 | N#Cc1cncc(COc2cc(O[C@H]3CCc4c(-c5cccc6c5CC[C@@H]6Oc5cc(OCc6cncc(C#N)c6)c(CN[C@@H](CCO)C(=O)O)cc5Cl)cccc43)c(Cl)cc2CN[C@@H](CCO)C(=O)O)c1 [Compound 1.046]
< 100 | N#Cc1cncc(COc2cc(O[C@H]3CCc4c(-c5cccc6c5CC[C@@H]6Oc5cc(OCc6cncc(C#N)c6)c(CN[C@@H](CO)C(=O)O)cc5Cl)cccc43)c(Cl)cc2CN[C@@H](CO)C(=O)O)c1 [Compound 1.038]
< 100 | N#Cc1cncc(COc2cc(O[C@H]3CCc4c(-c5cccc6c5CC[C@@H]6Oc5cc(OCc6cncc(C#N)c6)c(CNCC(=O)O)cc5Cl)cccc43)c(Cl)cc2CNCC(=O)O)c1 [Compound 1.017]

Second part, the compound before the results:

SMILES | IC50 [nM]
CCOc1cc(O[C@H]2CCc3c(-c4cccc(COc5ccc(CN(C)C)cc5)c4C)cccc32)c(Cl)cc1CN[C@@](C)(CO)C(=O)O [Compound 1.037] | < 100
CCOc1cc(O[C@H]2CCc3c(-c4cccc5c4CC[C@@H]5Oc4cc(OCc5cncc(C#N)c5)c(CN[C@@](C)(CO)C(=O)O)cc4Cl)cccc32)c(Cl)cc1CN[C@@](C)(CO)C(=O)O [Compound 1.040] | < 100
CCOc1cc(O[C@H]2CCc3c(-c4cccc5c4CC[C@@H]5Oc4cc(OCC)c(CN[C@H](CO)C(=O)O)cc4Cl)cccc32)c(Cl)cc1CN[C@H](CO)C(=O)O [Compound 1.018] | < 100
